Values quoted from earlier work, collected in patent US20240383928A1, “PRODUCTION OF DIORGANOTIN DIHALIDES” (priority 2021, published 2024).

System: mice
Conditions: intraperitoneal injection

| SMILES | LD50 (time not stated, all animals that survived for 25 minutes recovered) [mg/kg] | 2-hr. LD50 [mg/kg] | 24-hr. LD50 [mg/kg] |
| --- | --- | --- | --- |
| CC[N+](CC)(CC)CC.[Cl-] [N(C2H5)4Cl] | 60 | – | – |
| C[CH2][Sn]([CH2]C)([CH2]C)[CH2]C [Sn(C2H5)4] | – | 660 | 130 |
| [CH3][Sn]([CH3])([CH3])[CH3] [Sn(CH3)4, tetramethyl tin] | – | 140 | 18 |
